Assay results as given in patent US11053204B2, “Pyrimidinyloxy benzene derivatives as herbicides” (FMC Corporation, priority 2015, dated 2021).

Columns and labels:
Type in all cases: in vivo
[1] = test system: galium (catchweed bedstraw, Galium aparine); assay: Test C preemergence, plant response rating
[2] = test system: surinam grass (Brachiaria decumbens); assay: Test C preemergence, plant response rating
[3] = test system: windgrass (Apera spica-venti); assay: Test C preemergence, plant response rating
[4] = test system: nightshade (eastern black nightshade, Solanum ptycanthum); assay: Test C preemergence, plant response rating
[5] = test system: pigweed, palmer (palmer pigweed, Amaranthus palmeri); assay: Test C preemergence, plant response rating
[6] = test system: johnsongrass (Sorghum halepense); assay: Test C preemergence, plant response rating
[7] = test system: oat, wild (wild oat Avena fatua); assay: Test C preemergence, plant response rating
[8] = test system: barnyardgrass (Echinochloa crus-galli); assay: Test C preemergence, plant response rating; details: Preemergence
[9] = test system: wild poinsettia (Euphorbia heterophylla); assay: Test C preemergence, plant response rating
[10] = test system: buckwheat, wild (wild buckwheat, Polygonum convolvulus); assay: Test C postemergence, plant response rating; details: for Buckwheat, Wild plant response rating: scale 0 to 100 (0 no effect, 100 complete control)
Outline: (§1)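 Preemergence: seeds sown in loam–sand blend or silt loam and sprayed with test chemicals in a non-phytotoxic surfactant-containing solvent. Postemergence: potted plants at 2–18 cm (1–4-leaf stage) sprayed with the same formulation. After 13–15 d in greenhouse, visual rating versus controls on 0 (no effect) to 100 (complete control) scale.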

[11] = test system: pigweed, palmer (palmer pigweed, Amaranthus palmeri); assay: Test C postemergence, plant response rating; details: for Pigweed, Palmer plant response rating: scale 0 to 100 (0 no effect, 100 complete control)
Outline: as §1

[12] = test system: speedwell (bird's-eye speedwell, Veronica persica); assay: Test C postemergence, plant response rating; details: for Speedwell plant response rating: scale 0 to 100 (0 no effect, 100 complete control)
Outline: as §1

[13] = test system: Canada thistle (Cirsium arvense); assay: Test C postemergence, plant response rating; details: for Canada Thistle plant response rating: scale 0 to 100 (0 no effect, 100 complete control)
Outline: as §1

[14] = test system: geranium, cutleaf (cutleaf geranium, Geranium dissectum); assay: Test C postemergence, plant response rating; details: for Geranium, Cutleaf plant response rating: scale 0 to 100 (0 no effect, 100 complete control)
Outline: as §1

[15] = test system: windgrass (Apera spica-venti); assay: Test C postemergence, plant response rating
Outline: as §1

[16] = test system: wild mustard (Sinapis arvensis); assay: Test C postemergence, plant response rating; details: for Mustard, Wild plant response rating: scale 0 to 100 (0 no effect, 100 complete control)
Outline: as §1

[17] = test system: nightshade (eastern black nightshade, Solanum ptycanthum); assay: Test C postemergence, plant response rating; details: for Nightshade plant response rating: scale 0 to 100 (0 no effect, 100 complete control)
Outline: as §1

[18] = test system: field violet (Viola arvensis); assay: Test C postemergence, plant response rating; details: for Field Violet plant response rating: scale 0 to 100 (0 no effect, 100 complete control)
Outline: as §1

[19] = test system: field poppy (Papaver rhoeas); assay: Test C postemergence, plant response rating; details: for Field Poppy plant response rating: scale 0 to 100 (0 no effect, 100 complete control)
Outline: as §1

N#Cc1cccc(Oc2ncc(Cl)cn2)c1COCCC(F)(F)F [Compound 80]
55: Plant response rating, Johnsongrass ([6]; 62 g ai/ha, scale 0 to 100)
65: Plant response rating, Nightshade ([17]; 31 g ai/ha, scale 0 to 100)
0: Plant response rating, Oat, Wild ([7]; 31 g ai/ha, scale 0 to 100) | Plant response rating, Windgrass ([15]; 16 g ai/ha, scale of 0 to 100)
5: Plant response rating, Galium ([1]; 31 g ai/ha, scale 0 to 100) | Plant response rating, Windgrass ([15]; 31 g ai/ha, scale 0 to 100)
85: Plant response rating, Nightshade ([4]; 62 g ai/ha, scale 0 to 100) | Plant response rating, Pigweed, Palmer ([5]; 31 g ai/ha, scale 0 to 100) | Plant response rating, Poinsettia, Wild ([9]; 125 g ai/ha, scale of 0 to 100) | Canada Thistle plant response rating ([13]; 125 g ai/ha) | Plant response rating, Field Violet ([18]; 31 g ai/ha, scale 0 to 100) | Field Poppy plant response rating ([19]; 62 g ai/ha) | Field Poppy plant response rating ([19]; 125 g ai/ha)
35: Plant response rating, Pigweed, Palmer ([11]; 31 g ai/ha, scale 0 to 100) | Plant response rating, Geranium, Cutleaf ([14]; 31 g ai/ha, scale 0 to 100) | Geranium, Cutleaf plant response rating ([14]; 62 g ai/ha)
95: Buckwheat, Wild plant response rating ([10]; 125 g ai/ha) | Field Violet plant response rating ([18]; 125 g ai/ha)
10: Plant response rating, Oat, Wild ([7]; 62 g ai/ha, scale 0 to 100) | Plant response rating, Barnyardgrass ([8]; 16 g ai/ha, scale 0 to 100)
75: Plant response rating, Galium ([1]; 62 g ai/ha, scale of 0 to 100) | Buckwheat, Wild plant response rating ([10]; 62 g ai/ha) | Plant response rating, Canada Thistle ([13]; 16 g ai/ha, scale of 0 to 100) | Plant response rating, Canada Thistle ([13]; 31 g ai/ha, scale 0 to 100) | Canada Thistle plant response rating ([13]; 62 g ai/ha) | Plant response rating, Mustard, Wild ([16]; 16 g ai/ha, scale of 0 to 100) | Nightshade plant response rating ([17]; 125 g ai/ha) | Plant response rating, Field Violet ([18]; 16 g ai/ha, scale of 0 to 100) | Plant response rating, Field Poppy ([19]; 31 g ai/ha, scale 0 to 100)
100: Plant response rating, Windgrass ([3]; 62 g ai/ha, scale 0 to 100) | Plant response rating, Windgrass ([3]; 125 g ai/ha, scale of 0 to 100) | Plant response rating, Pigweed, Palmer ([5]; 62 g ai/ha, scale 0 to 100) | Plant response rating, Barnyardgrass ([8]; 125 g ai/ha, scale of 0 to 100) | Plant response rating, Speedwell ([12]; 31 g ai/ha, scale 0 to 100) | Speedwell plant response rating ([12]; 62 g ai/ha) | Speedwell plant response rating ([12]; 125 g ai/ha)
80: Plant response rating, Mustard, Wild ([16]; 31 g ai/ha, scale 0 to 100) | Mustard, Wild plant response rating ([16]; 62 g ai/ha)
50: Plant response rating, Surinam Grass ([2]; 31 g ai/ha, scale 0 to 100)
98: Plant response rating, Galium ([1]; 125 g ai/ha, scale of 0 to 100) | Plant response rating, Surinam Grass ([2]; 125 g ai/ha, scale of 0 to 100) | Plant response rating, Pigweed, Palmer ([5]; 125 g ai/ha, scale of 0 to 100)
60: Plant response rating, Surinam Grass ([2]; 62 g ai/ha, scale 0 to 100) | Plant response rating, Windgrass ([3]; 31 g ai/ha, scale 0 to 100) | Plant response rating, Johnsongrass ([6]; 125 g ai/ha, scale of 0 to 100) | Pigweed, Palmer plant response rating ([11]; 125 g ai/ha) | Geranium, Cutleaf plant response rating ([14]; 125 g ai/ha) | Plant response rating, Nightshade ([17]; 16 g ai/ha, scale of 0 to 100)
40: Plant response rating, Poinsettia, Wild ([9]; 62 g ai/ha, scale 0 to 100)
90: Plant response rating, Nightshade ([4]; 125 g ai/ha, scale of 0 to 100) | Plant response rating, Speedwell ([12]; 16 g ai/ha, scale of 0 to 100) | Mustard, Wild plant response rating ([16]; 125 g ai/ha) | Field Violet plant response rating ([18]; 62 g ai/ha)
30: Plant response rating, Johnsongrass ([6]; 31 g ai/ha, scale 0 to 100) | Plant response rating, Oat, Wild ([7]; 125 g ai/ha, scale of 0 to 100) | Plant response rating, Barnyardgrass ([8]; 31 g ai/ha, scale 0 to 100) | Plant response rating, Poinsettia, Wild ([9]; 31 g ai/ha, scale 0 to 100) | Plant response rating, Pigweed, Palmer ([11]; 16 g ai/ha, scale of 0 to 100) | Plant response rating, Geranium, Cutleaf ([14]; 16 g ai/ha, scale of 0 to 100) | Windgrass plant response rating ([15]; 125 g ai/ha, scale 0 to 100 (0 no effect, 100 complete control))
70: Plant response rating, Nightshade ([4]; 31 g ai/ha, scale 0 to 100) | Plant response rating, Barnyardgrass ([8]; 62 g ai/ha, scale of 0 to 100) | Plant response rating, Buckwheat, Wild ([10]; 16 g ai/ha, scale of 0 to 100) | Plant response rating, Buckwheat, Wild ([10]; 31 g ai/ha, scale 0 to 100) | Pigweed, Palmer plant response rating ([11]; 62 g ai/ha) | Nightshade plant response rating ([17]; 62 g ai/ha) | Plant response rating, Field Poppy ([19]; 16 g ai/ha, scale of 0 to 100)
